Experimental findings from patent publication US7455840B2, “Compositions and methods to reduce mutagenesis” (priority 2003, dated 2008) are described below.

Values after ≈ are worked out from the molar mass of the structure shown. Like-named read-outs stand apart in the source and are kept apart here.

Assay [1] relates to ATCC 25922-ΔlacZ(gyrA(S83L)). Description: second step mutation rate to 650 ng/ml ciprofloxacin resistance. To be noted: wild-type strain already resistant to 35 ng/ml, evolving resistance to 650 ng/ml ciprofloxacin. The class given is cell-based, E. coli.
Excerpt: (§3) Error bars represent standard deviation from two independent rate determinations.
In assay [2] the test system is ATCC 25922-lexA(S119A)(gyrA(S83L)). The description is as above. The class given is cell-based, E. coli. To be noted: lexA(S119A) strain already resistant to 35 ng/ml, evolving resistance to 650 ng/ml ciprofloxacin.
Excerpt: as §3
In assay [3] the test system is E. coli K-12 (MG1655) isogenic loss of function strains. Description: ciprofloxacin MIC of isogenic strains (Table 5). To be noted: Escherichia coli.
For the next assay, the system named is ATCC 25922-lexA(S119A). Nature of the assay: mouse thigh infection treated with ciprofloxacin, resistant colonies. To be noted: mice given approximately cytostatic ciprofloxacin dose.
The next assay has as its system E. coli MG1655. Nature of the assay: pre-exposure to rifampicin, then plating on 35 ng/mL ciprofloxacin. The class given is cell-based.
Assay [4] relates to LacZ strain (ATCC 25922-ΔlacZ). Nature of the assay: in vitro susceptibility testing (NCCLS method), rifampin MIC. The class given is cell-based, E. coli. To be noted: Escherichia coli. The method, then:
(§1) In vitro susceptibility testing of strains was preformed using the NCCLS method. (See National Committee for Clinical Laboratory Standards. 1997. Reference method for broth dilution anti-fungal susceptibility testing of yeasts. Approved standard M27-A. National Committee for Clinical Laboratory Standards, Wayne, Pa.) Eight colonies from each group at the 72 hr time point from MHA plate with and without rifampin were obtained. Minimum inhibitory concentrations (“MICs”) were performed in duplicate on three occasions on each colony. […] Minimum inhibitory concentrations of both the LexA and LacZ strains pre-treatment=8.0 mg/L.

Assay [5] concerns LexA strain (ATCC 25922 lexA(S119A)). The description is as above. The class given is cell-based, E. coli. To be noted: Escherichia coli. Here is the method: as §1
The test system of assay [6] is ATCC 25922 lexA(S119A). Nature of the assay: in vitro susceptibility testing with rifampin, Example 8. It counts as cell-based, E. coli. Here is the method: (§2) In vitro susceptibility testing was performed with rifampin on the parent strains and on cells isolated from the agar plates after therapy.
Assay [7] deals with E. coli ATCC 25922-ΔlacZ. The assay is described as above. It counts as cell-based. To be noted: Escherichia coli. Here is the method:
as §2

Assay [8] relates to E. coli ATCC 25922-ΔlacZ. Nature of the assay: neutropenic Swiss ICR mouse thigh infection treated with rifampin, CFU determination. To be noted: lacZ Strain; rifampin 100 mg/kg subcutaneous every 12 hours; 96 h.
Description: Two hours after infection the mice received rifampin at 100 mg/kg (subcutaneous) every 12 hours. The mice continued the rifampin regimen until they were sacrificed. Two mice were sacrificed at 0, 24, 48, 72 and 96 hours. The thighs were removed, homogenized, 1:10 serial diluted, and plated for CFU determination. Homogenates were plated on MH agar (NHA) to quantify the entire population of organisms and on rifampin containing MHA plates (16 mg/L) to quantify the population of organisms with a rifampin resistance phenotype.
Assay [9] relates to ATCC 25922 lexA(S119A). Nature of the assay: neutropenic CD1 mouse thigh infection treated with rifampin, colonies on rifampin plates. To be noted: rifampin 100 mg/kg twice daily subcutaneous; plates 128 mg/L; over the 72 h study period.
Description: (§4) Two hours after infection mice were treated with rifampin 100 mg/kg twice daily via the subcutaneous route. Groups of two mice were sacrificed at the started of therapy (zero hour) and every 24 h for a period of 72 h. After euthanasia, thigh were removed, homogenized, diluted, and plated for CFU enumeration (lower limit of detection is 2 log cfu/thigh). Homogenate dilutions were plated on MHA with and without rifampin (128 mg/L).
Assay [10] concerns E. coli ATCC 25922-ΔlacZ. The description is as above. To be noted: rifampin 100 mg/kg twice daily subcutaneous; plates 128 mg/L; after 72 h of therapy.
Description: as §4
Another assay has as its target LexA (Escherichia coli, UniProt P0A7C2). To be noted: peptide at 1.5 mM; LexA 5 uM, 0.25 uM activated RecA, 37 degrees, 30 min (FIG. 20).
[11] abbreviates: ATCC25922, colonies from the 72 hr time point of rifampin therapy in mice, read-out: Minimum Inhibitory Concentrations, Post.
The mark [12] stands for this setting: ATCC25922, pre-treatment, read-out: Minimum Inhibitory Concentrations, Pre.

Chain of LexA (P0A7C2 whole entry): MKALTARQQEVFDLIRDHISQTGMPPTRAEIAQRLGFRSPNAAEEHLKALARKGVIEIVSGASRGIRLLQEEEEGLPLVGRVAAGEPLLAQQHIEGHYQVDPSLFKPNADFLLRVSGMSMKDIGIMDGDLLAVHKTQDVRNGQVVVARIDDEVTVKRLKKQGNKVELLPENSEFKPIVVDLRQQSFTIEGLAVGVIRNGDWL

In the case of `O=C(O)c1cn(C2CC2)c2cc(N3CCNCC3)c(F)cc2c1=O` [ciprofloxacin], the “'second step' mutation rate” value is on record as 1.9 (±0.21)×10^−4 mutants/(cell day) in [1] and 5.5 (±4.9)×10^−7 mutants/(cell day) in [2]. For the same compound, the MIC is 0.03 mg/L in assay [3] (MG1655, read-out: ciprofloxacin MIC, strain lexA (S119A), WT gyrA); 0.35 mg/L in assay [3] (MG1655, read-out: ciprofloxacin MIC, strain lexA (S119A), gyrA S83L); 0.25 mg/L in assay [3] (MG1655, read-out: ciprofloxacin MIC, strain lexA (S119A), gyrA S83Δ); 0.035 mg/L in assay [3] (MG1655, read-out: ciprofloxacin MIC, strain ΔdinB, WT gyrA); 0.45 mg/L in [3] (MG1655, read-out: ciprofloxacin MIC, strain ΔdinB, gyrA S83L); 0.25 mg/L in [3] (MG1655, read-out: ciprofloxacin MIC, strain ΔdinB, gyrA S83Δ). Moreover, the MIC was 0.035 mg/L in assay [3] (MG1655, read-out: ciprofloxacin MIC, strain ΔdinB, ΔumuDC, WT gyrA); 0.45 mg/L in [3] (MG1655, read-out: ciprofloxacin MIC, strain ΔdinB, ΔumuDC, gyrA S83L); 0.25 mg/L in assay [3] (MG1655, read-out: ciprofloxacin MIC, strain ΔdinB, ΔumuDC, gyrA S83Δ); 0.035 mg/L in [3] (MG1655, read-out: ciprofloxacin MIC, strain ΔlacZ, WT gyrA); 0.45 mg/L in assay [3] (MG1655, read-out: ciprofloxacin MIC, strain ΔlacZ, gyrA S83L); 0.25 mg/L in assay [3] (MG1655, read-out: ciprofloxacin MIC, strain ΔlacZ, gyrA S83Δ). In addition, the MIC in [3] (MG1655, read-out: ciprofloxacin MIC, strain ΔpolB, WT gyrA) worked out at 0.03 mg/L; in [3] (MG1655, read-out: ciprofloxacin MIC, strain ΔpolB, gyrA S83L) it was 0.45 mg/L; in [3] (MG1655, read-out: ciprofloxacin MIC, strain ΔpolB, gyrA S83Δ), 0.25 mg/L; in [3] (MG1655, read-out: ciprofloxacin MIC, strain ΔpolB, ΔdinB, WT gyrA) it was 0.025 mg/L; in [3] (MG1655, read-out: ciprofloxacin MIC, strain ΔpolB, ΔdinB, gyrA S83L) it was 0.45 mg/L; in assay [3] (MG1655, read-out: ciprofloxacin MIC, strain ΔpolB, ΔdinB, gyrA S83Δ), 0.25 mg/L. For the same compound, the MIC was 0.025 mg/L in assay [3] (MG1655, read-out: ciprofloxacin MIC, strain ΔpolB, ΔdinB, ΔumuDC, WT gyrA); 0.45 mg/L in [3] (MG1655, read-out: ciprofloxacin MIC, strain ΔpolB, ΔdinB, ΔumuDC, gyrA S83L); 0.25 mg/L in [3] (MG1655, read-out: ciprofloxacin MIC, strain ΔpolB, ΔdinB, ΔumuDC, gyrA S83Δ); 0.025 mg/L in [3] (MG1655, read-out: ciprofloxacin MIC, strain ΔpolB, ΔumuDC, WT gyrA); 0.45 mg/L in assay [3] (MG1655, read-out: ciprofloxacin MIC, strain ΔpolB, ΔumuDC, gyrA S83L); 0.25 mg/L in assay [3] (MG1655, read-out: ciprofloxacin MIC, strain ΔpolB, ΔumuDC, gyrA S83Δ). Moreover, the MIC turned out to be 0.035 mg/L in [3] (MG1655, read-out: ciprofloxacin MIC, strain ΔrecD, WT gyrA); 0.35 mg/L in [3] (MG1655, read-out: ciprofloxacin MIC, strain ΔrecD, gyrA S83L); 0.25 mg/L in assay [3] (MG1655, read-out: ciprofloxacin MIC, strain ΔrecD, gyrA S83Δ); 0.035 mg/L in assay [3] (MG1655, read-out: ciprofloxacin MIC, strain ΔumuDC, WT gyrA); 0.45 mg/L in [3] (MG1655, read-out: ciprofloxacin MIC, strain ΔumuDC, gyrA S83L); 0.25 mg/L in assay [3] (MG1655, read-out: ciprofloxacin MIC, strain ΔumuDC, gyrA S83Δ). Besides, the “Colonies isolated on plates containing ciprofloxacin” value with ATCC 25922-lexA(S119A) (day 1 post infection, plates 20 ng/mL) turned out to be 3; with ATCC 25922-lexA(S119A) (day 1 post infection, plates 80 ng/mL), 1; in the assay with ATCC 25922-lexA(S119A) (day 2 post infection, plates 20 ng/mL), 2; in the assay with ATCC 25922-lexA(S119A) (day 2 post infection, plates 80 ng/mL), 0.

Turning to `CO[C@H]1/C=C/O[C@@]2(C)Oc3c(C)c(O)c4c(O)c(c(/C=N/N5CCN(C)CC5)c(O)c4c3C2=O)NC(=O)/C(C)=C\C=C\[C@H](C)[C@H](O)[C@@H](C)[C@@H](O)[C@@H](C)[C@H](OC(C)=O)[C@@H]1C` [rifampin], in the assay with E. coli MG1655 (4 mg/mL rifampicin in PBS, four days, 37° C., plated on 35 ng/mL ciprofloxacin), the “effect on number of ciprofloxacin resistant colonies” value is “no effect”. The “effect on number of ciprofloxacin resistant cells” value was “dramatic increase” in the assay on E. coli MG1655 (12 mg/mL rifampicin in PBS, four days, 37° C., plated on 35 ng/mL ciprofloxacin) and “dramatic increase” with E. coli MG1655 (36 mg/mL rifampicin in PBS, four days, 37° C., plated on 35 ng/mL ciprofloxacin). For the same compound, the “effect on number of ciprofloxacin resistant cells in umuDC deletion strain” value with E. coli MG1655 (umuDC deletion stain, 12 or 36 mg/mL rifampicin) is listed as “essentially completely lost”. Also, the MIC in assay [4] (setting [11]) is over 16400 mg/L; in [4] (setting [12]), 8 mg/L (≈ 9.72 µM); in [5] (setting [11]), 16 to 32 mg/L (≈ 19.4 to 38.9 µM); in assay [5] (setting [12]), 8 mg/L (≈ 9.72 µM); in the assay on ATCC 25922 lexA(S119A) [6] (Escherichia coli, ATCC25922, parent strain, read-out: MIC) it was 8 mg/L (≈ 9.72 µM); in the assay on ATCC 25922 lexA(S119A) [6] (colonies after therapy) it was 8.0 mg/L (≈ 9.72 µM). Moreover, the MIC with E. coli ATCC 25922-ΔlacZ [7] (ATCC25922, colonies isolated from the rifampin containing plates after therapy) was over 256 mg/L; in the assay with E. coli ATCC 25922-ΔlacZ [7] (ATCC25922, parent strain) it was 8 mg/L (≈ 9.72 µM). Further, the “CFU/Thigh, Media (outcome of mice)” value in the assay on E. coli ATCC 25922-ΔlacZ [8] is reported as “mice dead”. The “colonies on rifampin containing plates” value is “no colonies grew” with ATCC 25922 lexA(S119A) [9] and “large number” in the assay on E. coli ATCC 25922-ΔlacZ [10].

For VAAGEPL [peptide 3], the “inhibition of LexA's autocleavage” value against LexA is on record as “inhibition”.
